Measurements reported in patent US12514938B2, “Fibroblast activation protein targeting peptides” (PERSPECTIVE THERAPEUTICS, INC., priority 2023, dated 2026).
*1 amine or outer side, *2 acyl side, *3 side chain or, on linkers, in order; H or OH if unused. Where a SMILES comes first, the peptide text is derived from it. Bridges are numbered along the chain shown (N, C = ends). oXylylene = c1ccc(C[*:2])c(C[*:1])c1

molecular target: T1, Human Fibroblast Activation Protein (FAP) (Homo sapiens, UniProt Q12884); assay: Enzyme inhibition assay against human FAP (substrate Z-GP-AMC), Example 1; format: biochemical; conditions: human FAP 5 ng/well, 50 μM Z-GP-AMC; Ki from IC50 by Cheng-Prusoff
T1 sequence (Q12884 1-760): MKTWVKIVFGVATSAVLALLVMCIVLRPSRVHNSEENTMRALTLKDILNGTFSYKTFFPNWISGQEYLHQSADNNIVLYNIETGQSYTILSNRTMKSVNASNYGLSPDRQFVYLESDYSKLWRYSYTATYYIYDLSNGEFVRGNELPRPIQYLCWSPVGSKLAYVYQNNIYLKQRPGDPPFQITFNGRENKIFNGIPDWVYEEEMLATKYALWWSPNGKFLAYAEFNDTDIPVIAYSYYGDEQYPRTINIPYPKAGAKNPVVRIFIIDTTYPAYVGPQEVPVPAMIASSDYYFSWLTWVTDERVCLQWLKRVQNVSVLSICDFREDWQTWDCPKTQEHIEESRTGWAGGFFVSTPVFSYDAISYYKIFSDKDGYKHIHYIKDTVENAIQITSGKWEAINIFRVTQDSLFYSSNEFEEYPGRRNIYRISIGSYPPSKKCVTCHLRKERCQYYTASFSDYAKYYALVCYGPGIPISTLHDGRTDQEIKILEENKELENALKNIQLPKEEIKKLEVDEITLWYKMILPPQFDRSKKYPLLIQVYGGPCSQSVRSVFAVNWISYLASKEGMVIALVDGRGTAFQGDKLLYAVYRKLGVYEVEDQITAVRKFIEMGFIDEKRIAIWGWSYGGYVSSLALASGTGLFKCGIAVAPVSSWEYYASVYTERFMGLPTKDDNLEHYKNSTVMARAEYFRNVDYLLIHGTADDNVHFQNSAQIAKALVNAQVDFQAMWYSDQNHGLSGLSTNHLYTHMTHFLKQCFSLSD
Description: Binding Affinity Against Human Fibroblast Activation Protein (FAP)
An enzyme inhibition assay was performed to determine IC50 values and then the Cheng-Prusoff equation used to calculate the Ki given a known Km of the substrate Z-GP-AMC for FAP. To perform the assay, FAP (5 ng/well) and the test peptide at varying concentrations (i.e. 10^−6 to 10^−12) were incubated in a black 96-well plate for 10 minutes at RT on a shaker plate. Then, the substrate Z-GP-AMC was added to give a final concentration of 50 μM. The total reaction volume per well was 100 μL The reaction was allowed to incubate at RT on a shaker plate for 1 hour protected from light, and then fluorescence read with a BioTek Synergy LX plate reader at an ex/em (360/40 and 460/40). Experiments were performed in at least duplicate, and controls of buffer only, buffer and FAP enzyme, and buffer with substrate and FAP enzyme only were included for comparison. The buffer used for the assay was 50 mM Tris-HCl, 1M NaCl, and 1 mg/mL BSA, pH=7.5. Data was plotted in GraphPad Prism and non-linear regression used to calculate IC50 values. The compounds tested and Ki values of each were as follows: […]

SMILES	Ki [nM]
CC(=O)NCC(=O)N[C@H]1CSCc2ccccc2CSC[C@@H](C(N)=O)NC(=O)[C@H](Cc2c[nH]c3ccccc23)NC(=O)[C@H](Cc2c[nH]c3ccccc23)NC(=O)[C@H](CCC(N)=O)NC(=O)[C@H](CCC(=O)O)NC(=O)[C@H](Cc2ccccc2)NC(=O)[C@@H]2CCCN2C(=O)[C@H]([C@@H](C)O)NC1=O [VMT-FAP-1-1, Ac-G[C(oXdB)TPFEQWWC]-NH2] (Ac-GCTPFEQWWC-NH2; linker 2-10 via oXylylene)	10.4
CC(=O)N[C@@H](CCCNC(=N)N)C(=O)N[C@H]1CSCc2ccccc2CSC[C@@H](C(N)=O)NC(=O)[C@H](Cc2c[nH]c3ccccc23)NC(=O)[C@H](Cc2c[nH]c3ccccc23)NC(=O)[C@H](CCC(N)=O)NC(=O)[C@H](CCC(=O)O)NC(=O)[C@H](Cc2ccccc2)NC(=O)[C@@H]2CCCN2C(=O)[C@H]([C@@H](C)O)NC1=O [VMT-FAP-1-13, Ac-R[C(oXdB)TPFEQWWC]-NH2] (Ac-RCTPFEQWWC-NH2; linker 2-10 via oXylylene)	2.82
CC(=O)N[C@@H](CC(N)=O)C(=O)N[C@H]1CSCc2ccccc2CSC[C@@H](C(N)=O)NC(=O)[C@H](Cc2c[nH]c3ccccc23)NC(=O)[C@H](Cc2c[nH]c3ccccc23)NC(=O)[C@H](CCC(N)=O)NC(=O)[C@H](CCC(=O)O)NC(=O)[C@H](Cc2ccccc2)NC(=O)[C@@H]2CCCN2C(=O)[C@H]([C@@H](C)O)NC1=O [VMT-FAP-1-17, Ac-N[C(oXdB)TPFEQWWC]-NH2] (Ac-NCTPFEQWWC-NH2; linker 2-10 via oXylylene)	10.7
CC(=O)N[C@@H](CC(N)=O)C(=O)N[C@H]1CSCc2ccccc2CSC[C@@H](C(N)=O)NC(=O)[C@H](Cc2c[nH]c3ccccc23)NC(=O)[C@H](Cc2c[nH]c3ccccc23)NC(=O)[C@H](CCC(N)=O)NC(=O)[C@H](CCC(=O)O)NC(=O)[C@H](Cc2c[nH]cn2)NC(=O)[C@@H]2CCCN2C(=O)[C@H]([C@@H](C)O)NC1=O [VMT-FAP-1-64, Ac-N[C(oXdB)TPHEQWWC]-NH2] (Ac-NCTPHEQWWC-NH2; linker 2-10 via oXylylene)	10.7
CC[C@H](C)[C@@H]1NC(=O)[C@H](CCC(=O)O)NC(=O)[C@H](Cc2ccccc2)NC(=O)[C@@H]2CCCN2C(=O)[C@H]([C@@H](C)O)NC(=O)[C@@H](NC(=O)[C@H](CO)NC(C)=O)CSCc2ccccc2CSC[C@@H](C(N)=O)NC(=O)[C@H](Cc2c[nH]c3ccccc23)NC(=O)[C@H](Cc2c[nH]c3ccccc23)NC1=O [VMT-FAP-1-94, Ac-S[C(oXdB)TPFEIWWC]-NH2] (Ac-SCTPFEIWWC-NH2; linker 2-10 via oXylylene)	5.01
CC(=O)N[C@@H](CO)C(=O)N[C@H]1CSCc2ccccc2CSC[C@@H](C(N)=O)NC(=O)[C@H](Cc2c[nH]c3ccccc23)NC(=O)[C@H](Cc2c[nH]c3ccccc23)NC(=O)[C@H](Cc2c[nH]cn2)NC(=O)[C@H](CCC(=O)O)NC(=O)[C@H](Cc2ccccc2)NC(=O)[C@@H]2CCCN2C(=O)[C@H]([C@@H](C)O)NC1=O [VMT-FAP-1-101, Ac-S[C(oXdB)TPFEHWWC]-NH2] (Ac-SCTPFEHWWC-NH2; linker 2-10 via oXylylene)	11.2
CC(=O)N[C@@H](CO)C(=O)N[C@H]1CSCc2ccccc2CSC[C@@H](C(N)=O)NC(=O)[C@H](Cc2ccc(O)cc2)NC(=O)[C@H](Cc2c[nH]c3ccccc23)NC(=O)[C@H](CCC(N)=O)NC(=O)[C@H](CCC(=O)O)NC(=O)[C@H](Cc2ccccc2)NC(=O)[C@@H]2CCCN2C(=O)[C@H]([C@@H](C)O)NC1=O [VMT-FAP-2-28, Ac-S[C(oXdB)TPFEQWYC]-NH2] (Ac-SCTPFEQWYC-NH2; linker 2-10 via oXylylene)	2.29

Now those with a lower Ki, led by results:

Ki [nM]	SMILES
1.83	CC(=O)N[C@@H](CO)C(=O)N[C@H]1CSCc2ccccc2CSC[C@@H](C(N)=O)NC(=O)[C@H](Cc2c[nH]c3ccccc23)NC(=O)[C@H](Cc2c[nH]c3ccccc23)NC(=O)[C@H](CC(=O)O)NC(=O)[C@H](CCC(=O)O)NC(=O)[C@H](Cc2ccccc2)NC(=O)[C@@H]2CCCN2C(=O)[C@H]([C@@H](C)O)NC1=O [VMT-FAP-1-104, Ac-S[C(oXdB)TPFEDWWC]-NH2] (Ac-SCTPFEDWWC-NH2; linker 2-10 via oXylylene)
0.55	CC(=O)N[C@@H](CO)C(=O)N[C@H]1CSCc2ccccc2CSC[C@@H](C(N)=O)NC(=O)[C@H](Cc2c[nH]c3ccccc23)NC(=O)[C@H](Cc2c[nH]c3ccccc23)NC(=O)[C@H](CCC(N)=O)NC(=O)[C@H](CCC(=O)O)NC(=O)[C@H](Cc2ccccc2)NC(=O)[C@@H]2CCCN2C(=O)[C@H]([C@@H](C)O)NC1=O [VMT-FAP-2-12, Ac-S[C(oXdB)TPFEQWWC]-NH2] (Ac-SCTPFEQWWC-NH2; linker 2-10 via oXylylene)
0.46	CC(=O)N[C@@H](CC(N)=O)C(=O)N[C@H]1CSCc2ccccc2CSC[C@@H](C(N)=O)NC(=O)[C@H](Cc2c[nH]c3ccccc23)NC(=O)[C@H](Cc2c[nH]c3ccccc23)NC(=O)[C@H](CCC(N)=O)NC(=O)[C@H](CCC(=O)O)NC(=O)[C@H](Cc2c[nH]c3ccccc23)NC(=O)[C@@H]2CCCN2C(=O)[C@H]([C@@H](C)O)NC1=O [VMT-FAP-1-62, Ac-N[C(oXdB)TPWEQWWC]-NH2] (Ac-NCTPWEQWWC-NH2; linker 2-10 via oXylylene)
0.45	C[C@H](N)C(=O)N[C@H]1CSCc2ccccc2CSC[C@@H](C(N)=O)NC(=O)[C@H](Cc2c[nH]c3ccccc23)NC(=O)[C@H](Cc2c[nH]c3ccccc23)NC(=O)[C@H](CCC(N)=O)NC(=O)[C@H](CCC(=O)O)NC(=O)[C@H](Cc2ccccc2)NC(=O)[C@@H]2CCCN2C(=O)[C@H]([C@@H](C)O)NC1=O [VMT-FAP-2-19, A[C(oXdB)TPFEQWWC]-NH2] (H-ACTPFEQWWC-NH2; linker 2-10 via oXylylene; N-terminus assumed)
0.38	CC(=O)N[C@@H](CO)C(=O)N[C@H]1CSCc2ccccc2CSC[C@@H](C(N)=O)NC(=O)[C@H](Cc2c[nH]c3ccccc23)NC(=O)[C@H](Cc2c[nH]c3ccccc23)NC(=O)[C@H](CCC(=O)O)NC(=O)[C@H](CCC(=O)O)NC(=O)[C@H](Cc2ccccc2)NC(=O)[C@@H]2CCCN2C(=O)[C@H]([C@@H](C)O)NC1=O [VMT-FAP-1-105, Ac-S[C(oXdB)TPFEEWWC]-NH2] (Ac-SCTPFEEWWC-NH2; linker 2-10 via oXylylene)
0.36	CC(=O)N[C@@H](CC(=O)O)C(=O)N[C@H]1CSCc2ccccc2CSC[C@@H](C(N)=O)NC(=O)[C@H](Cc2c[nH]c3ccccc23)NC(=O)[C@H](Cc2c[nH]c3ccccc23)NC(=O)[C@H](CCC(N)=O)NC(=O)[C@H](CCC(=O)O)NC(=O)[C@H](Cc2ccccc2)NC(=O)[C@@H]2CCCN2C(=O)[C@H]([C@@H](C)O)NC1=O [VMT-FAP-1-14, Ac-D[C(oXdB)TPFEQWWC]-NH2] (Ac-DCTPFEQWWC-NH2; linker 2-10 via oXylylene)
0.29	C[C@@H]1NC(=O)[C@H](CCC(=O)O)NC(=O)[C@H](Cc2ccccc2)NC(=O)[C@@H]2CCCN2C(=O)[C@H]([C@@H](C)O)NC(=O)[C@@H](NC(=O)[C@@H](N)CO)CSCc2ccccc2CSC[C@@H](C(N)=O)NC(=O)[C@H](Cc2c[nH]c3ccccc23)NC(=O)[C@H](Cc2c[nH]c3ccccc23)NC1=O [VMT-FAP-2-23, S[C(oXdB)TPFEAWWC]-NH2] (H-SCTPFEAWWC-NH2; linker 2-10 via oXylylene; N-terminus assumed)
